Experimental data: article PMC12155096 (International Journal of Molecular Sciences, 2025)
Where a name gives a salt, the structure may show the parent alone. Read-outs that look alike come from different tables or passages of the source.

Legend:
human CYP1A2 = biological target: T1, human CYP1A2 (Homo sapiens, UniProt P05177); assay: biochemical
T1 sequence (P05177 1-516): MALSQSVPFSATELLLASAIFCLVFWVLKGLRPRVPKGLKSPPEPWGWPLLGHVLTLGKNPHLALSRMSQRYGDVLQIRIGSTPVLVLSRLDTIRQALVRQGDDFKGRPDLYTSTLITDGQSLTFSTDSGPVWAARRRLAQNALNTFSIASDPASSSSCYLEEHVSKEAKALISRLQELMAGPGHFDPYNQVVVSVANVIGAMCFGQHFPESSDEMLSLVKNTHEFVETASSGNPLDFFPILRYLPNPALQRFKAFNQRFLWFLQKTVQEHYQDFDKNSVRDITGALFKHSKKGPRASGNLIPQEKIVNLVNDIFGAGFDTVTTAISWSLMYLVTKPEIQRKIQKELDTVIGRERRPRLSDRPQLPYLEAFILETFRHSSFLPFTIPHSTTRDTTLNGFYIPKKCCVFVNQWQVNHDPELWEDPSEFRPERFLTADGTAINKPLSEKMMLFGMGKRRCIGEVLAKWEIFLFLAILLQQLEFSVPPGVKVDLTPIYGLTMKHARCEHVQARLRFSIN

human CYP2C9 [1] = biological target: T2, human CYP2C9 (Homo sapiens, UniProt P11712); assay: biochemical
human CYP2C19 [2] = biological target: T3, human CYP2C19 (Homo sapiens, UniProt P33261); assay: biochemical; conditions: for AC50: CYP2C19 AC50 (half-maximal activity concentration)
human CYP2D6 [3] = biological target: T4, human CYP2D6 (Homo sapiens, UniProt P10635); assay: biochemical
human CYP2C9 [4] = biological target: T2, human CYP2C9; conditions: human
human CYP2C19 [5] = biological target: T3, human CYP2C19; conditions: human
human CYP2D6 [6] = biological target: T4, human CYP2D6; conditions: human
[7] = CYP1A2 IC50 (half-maximal inhibitory concentration)
[8] = CYP2C9 IC50 (half-maximal inhibitory concentration)
[9] = CYP2C19 IC50 (half-maximal inhibitory concentration)
[10] = CYP2D6 IC50 (half-maximal inhibitory concentration)
[11] = CYP1A2 AC50 (half-maximal activity concentration)
[12] = CYP2C9 AC50 (half-maximal activity concentration)
[13] = CYP2D6 AC50 (half-maximal activity concentration)

T4 sequence (P10635 whole entry): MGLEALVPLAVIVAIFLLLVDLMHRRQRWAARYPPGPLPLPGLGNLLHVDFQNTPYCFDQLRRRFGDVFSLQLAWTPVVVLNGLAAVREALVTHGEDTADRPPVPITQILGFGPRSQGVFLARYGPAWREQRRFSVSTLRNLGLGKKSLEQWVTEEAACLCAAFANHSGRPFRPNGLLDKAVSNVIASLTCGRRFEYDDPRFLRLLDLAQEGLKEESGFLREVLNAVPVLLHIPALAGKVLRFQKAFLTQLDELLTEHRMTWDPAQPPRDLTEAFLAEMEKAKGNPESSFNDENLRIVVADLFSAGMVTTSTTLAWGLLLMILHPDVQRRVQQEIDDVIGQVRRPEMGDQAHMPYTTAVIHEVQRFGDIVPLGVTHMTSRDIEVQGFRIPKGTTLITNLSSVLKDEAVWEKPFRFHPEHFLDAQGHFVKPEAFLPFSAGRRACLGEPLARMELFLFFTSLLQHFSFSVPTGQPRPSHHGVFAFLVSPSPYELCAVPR
T2 sequence (P11712 whole entry): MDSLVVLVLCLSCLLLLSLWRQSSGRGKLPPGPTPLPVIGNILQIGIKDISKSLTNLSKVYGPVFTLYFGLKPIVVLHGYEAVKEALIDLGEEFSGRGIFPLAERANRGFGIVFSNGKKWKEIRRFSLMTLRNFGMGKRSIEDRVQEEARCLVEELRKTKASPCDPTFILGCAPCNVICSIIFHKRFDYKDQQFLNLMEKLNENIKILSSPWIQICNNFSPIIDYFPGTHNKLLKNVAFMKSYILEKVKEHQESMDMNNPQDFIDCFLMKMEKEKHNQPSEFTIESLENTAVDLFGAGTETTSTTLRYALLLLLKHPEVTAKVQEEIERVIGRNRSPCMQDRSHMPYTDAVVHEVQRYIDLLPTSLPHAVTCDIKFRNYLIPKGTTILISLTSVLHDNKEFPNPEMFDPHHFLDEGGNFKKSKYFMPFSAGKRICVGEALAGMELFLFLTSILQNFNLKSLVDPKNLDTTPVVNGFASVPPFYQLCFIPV
T3 sequence (P33261 whole entry): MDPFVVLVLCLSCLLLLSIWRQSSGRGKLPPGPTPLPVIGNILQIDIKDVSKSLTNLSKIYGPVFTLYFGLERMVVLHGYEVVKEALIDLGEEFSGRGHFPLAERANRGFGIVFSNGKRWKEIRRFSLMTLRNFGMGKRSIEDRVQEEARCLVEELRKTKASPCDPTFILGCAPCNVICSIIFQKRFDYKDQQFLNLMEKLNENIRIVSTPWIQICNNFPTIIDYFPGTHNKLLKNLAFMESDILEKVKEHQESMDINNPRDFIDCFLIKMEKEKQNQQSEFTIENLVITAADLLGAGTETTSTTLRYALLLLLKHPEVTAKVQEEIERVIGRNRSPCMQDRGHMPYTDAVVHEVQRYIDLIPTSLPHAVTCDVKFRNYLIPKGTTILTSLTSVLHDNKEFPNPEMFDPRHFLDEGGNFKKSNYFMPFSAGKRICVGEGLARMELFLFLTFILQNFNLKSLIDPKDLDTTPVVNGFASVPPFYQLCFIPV

Structure (SMILES) | IC50 (human CYP1A2; [7]) | IC50 (human CYP2C9 [1]; [8]) | IC50 (human CYP2C19 [2]; [9]) | IC50 (human CYP2D6 [3]; [10]) | other results
Cc1[nH]cnc1CN1CCc2c(c3ccccc3n2C)C1=O [Alosetron hydrochloride] | 0.89 µM | 1.66 µM | 27.8 µM | 10.8 µM | 
CCOC(=O)[C@H](CCc1ccccc1)N[C@H]1CCc2ccccc2N(CC(=O)O)C1=O [Benazepril] | 14 µM | 7.32 µM | 6.84 µM | 29.2 µM | 
CC(Cc1cccc(C(F)(F)F)c1)NCCOC(=O)c1ccccc1 (stereo not shown) [Benfluorex hydrochloride] | 2.6 µM | 25.3 µM | 6.95 µM | 0.08 µM | 
COc1ccc2cc3[n+](cc2c1OC)CCc1cc2c(cc1-3)OCO2 [Berberine chloride] | 23.6 µM |  | 26.9 µM | 0.52 µM | 
COc1ccc2c(c1OC)CN1CCc3cc4c(cc3[C@@H]1C2)OCO4 [Canadine] | 9.1 µM | 26.4 µM | 1.25 µM | 0.26 µM | 
COCCOC(=O)C1=C(C)NC(C)=C(C(=O)OC/C=C/c2ccccc2)C1c1cccc([N+](=O)[O-])c1 (stereo not shown) [Cilnidipine] | 15.6 µM | 0.21 µM | 1.75 µM | 29.2 µM | 
CC(C)(C)C(=O)C(Oc1ccc(Cl)cc1)n1ccnc1 (stereo not shown) [Climbazole] | 16.1 µM | 3.23 µM | 1.56 µM | 28.7 µM | 
CCN(CC)CCOc1ccccc1C(=O)CCc1ccccc1 [Etafenone] |  |  |  |  | IC50 (human CYP1A2): 6.05 ± 1.51 µM; IC50 (human CYP2C19 [2]): 35.6 ± 11.4 µM; IC50 (human CYP2D6 [3]): 0.64 ± 0.08 µM
O=C(OCC(O)CO)c1ccccc1Nc1ccnc2c(C(F)(F)F)cccc12 (stereo not shown) [Floctafenine] |  |  |  |  | IC50 (human CYP1A2): 2.91 ± 0.17 µM; IC50 (human CYP2C9 [1]): 10.2 ± 0.69 µM; IC50 (human CYP2C19 [2]): 0.35 µM; IC50 (human CYP2D6 [3]): 23.6 ± 7.75 µM
CN1CCN(CCC(=O)N2c3ccccc3Sc3ccc(C(F)(F)F)cc32)CC1 [Ftormetazine] | 29.2 µM |  | 27 µM | 0.14 µM | 
CC(COc1ccccc1)NC(C)C(O)c1ccc(O)cc1 (stereo not shown) [Isoxsuprine hydrochloride] | 16.1 µM | 14.9 µM | 7.99 µM | 0.55 µM | AC50 (human CYP1A2; [11]): 16.1 µM; AC50 (human CYP2C9 [1]; [12]): 14.9 µM; AC50 (human CYP2C19 [2]): 7.99 µM; AC50 (human CYP2D6 [3]; [13]): 0.55 µM
COc1c2occc2c(OC)c2c(=O)cc(C)oc12 [Khellin] | 0.15 µM | 14.4 µM | 6.65 µM | 14.5 µM | 
CCOC(=O)C1=C(C)NC(C)=C(C(=O)OCC)C1c1ccccc1/C=C/C(=O)OC(C)(C)C [Lacidipine] | 23.9 µM | 1.29 µM | 6.72 µM | 15.7 µM | 
COC(=O)C1=C(C)NC(C)=C(C(=O)OC(C)(C)CN(C)CCC(c2ccccc2)c2ccccc2)C1c1cccc([N+](=O)[O-])c1 (stereo not shown) [Lercanidipine hydrochloride] |  |  |  |  | IC50 (human CYP1A2): 32.8 ± 2.67 µM; IC50 (human CYP2C9 [1]): 2.89 ± 0.52 µM; IC50 (human CYP2D6 [3]): 4.44 ± 1.02 µM
CC1CCC(C(C)C)C(OC(=O)c2ccccc2N)C1 (stereo not shown) [Menthyl anthranilate] |  |  |  |  | AC50 (human CYP1A2; [11]): 16.6 µM; AC50 (human CYP2C9 [1]; [12]): 4.33 µM; AC50 (human CYP2C19 [2]): 4.62 µM; AC50 (human CYP2D6 [3]; [13]): 57.9 µM
COc1ccc(C(c2ccc(OC)cc2)C(Cl)(Cl)Cl)cc1 [Methoxychlor] | 17.8 µM | 2.45 µM | 0.86 µM | 35.5 µM | 
Clc1ccc(C(c2ccccc2Cl)C(Cl)Cl)cc1 (stereo not shown) [Mitotane] |  | 10.6 µM | 0.82 µM | 32.4 µM | CYP2C9 Efficacy (in parenthesis) (human CYP2C9 [4]): 10.57 ± 0.69 (-106 ± 4) %; CYP2C19 Efficacy (in parenthesis) (human CYP2C19 [5]): 0.82 ± 0.15 (-131 ± 13) %; CYP2D6 Efficacy (in parenthesis) (human CYP2D6 [6]): 32.45 ± 5.84 (-38 ± 9) %; AC50 (human CYP2C9 [1]; [12]): 10.6 µM; AC50 (human CYP2C19 [2]): 0.82 µM; AC50 (human CYP2D6 [3]; [13]): 32.4 µM

Structure (SMILES) | IC50 (human CYP1A2; [7]) | IC50 (human CYP2C9 [1]; [8]) | IC50 (human CYP2C19 [2]; [9]) | IC50 (human CYP2D6 [3]; [10]) | other results
CCCCCOc1ccccc1/C(=C\SC)n1ccnc1 [Neticonazole] |  |  |  |  | IC50 (human CYP1A2): 4.51 ± 2.88 µM; IC50 (human CYP2C9 [1]): 7.76 ± 3.93 µM; IC50 (human CYP2C19 [2]): 3.49 ± 2.23 µM; IC50 (human CYP2D6 [3]): 7.69 ± 5.3 µM
O=C(OCC1(COC(=O)c2cccnc2)CCCC(COC(=O)c2cccnc2)(COC(=O)c2cccnc2)C1O)c1cccnc1 [Nicomolol] |  | 8.67 µM | 23.3 µM | 22.4 µM | 
CC(C)OC(=O)c1cc(C(=O)OC(C)C)cc([N+](=O)[O-])c1 [Nitrothal-isopropyl] |  |  |  |  | IC50 (human CYP1A2): 2.34 µM; IC50 (human CYP2C9 [1]): 1.06 µM; IC50 (human CYP2C19 [2]): 0.52 µM; IC50 (human CYP2D6 [3]): 6.51 µM
COc1ccc2c(c1OC)C(=O)O[C@@H]2[C@H]1c2c(cc3c(c2OC)OCO3)CCN1C [Noscapine] |  | 0.84 µM | 1.38 µM | 12.9 µM | 
CC(CCc1ccccc1)NC(C)C(O)c1ccc(O)cc1 (stereo not shown) [Nylidrin] | 13.6 µM |  | 9.42 µM | 0.49 µM | AC50 (human CYP1A2; [11]): 13.6 µM; AC50 (human CYP2C19 [2]): 9.42 µM; AC50 (human CYP2D6 [3]; [13]): 0.49 µM
C/C(=C(/OCCOc1ccc(Cl)cc1)c1ccc(Cl)cc1Cl)n1ccnc1 [Omoconazole] |  |  |  |  | IC50 (human CYP1A2): 2.5 ± 0.24 µM; IC50 (human CYP2C9 [1]): 0.87 ± 0.1 µM; IC50 (human CYP2C19 [2]): 0.92 ± 0.4 µM; IC50 (human CYP2D6 [3]): 1.67 ± 0.11 µM
CN1CCCN=C1COC(=O)C(O)(c1ccccc1)C1CCCCC1 (stereo not shown) [Oxyphencyclimine hydrochloride] |  |  |  |  | IC50 (human CYP1A2): 14.6 µM; IC50 (human CYP2D6 [3]): 0.92 µM
CCCCCC(C=O)=Cc1ccccc1 [Pentylcinnamaldehyde] |  |  |  |  | AC50 (human CYP1A2; [11]): 29.1 µM; AC50 (human CYP2C9 [1]; [12]): 37 µM; AC50 (human CYP2C19 [2]): 30.2 µM; AC50 (human CYP2D6 [3]; [13]): 49.4 µM
CC(N/C(=N\C#N)Nc1ccncc1)C(C)(C)C (stereo not shown) [Pinacidil monohydrate] |  | 13.9 µM | 2.06 µM | 25.3 µM | CYP2C9 Efficacy (in parenthesis) (human CYP2C9 [4]): 13.86 ± 1.59 (-102 ± 3) %; CYP2C19 Efficacy (in parenthesis) (human CYP2C19 [5]): 2.06 ± 0.47 (-116 ± 6) %; CYP2D6 Efficacy (in parenthesis) (human CYP2D6 [6]): 25.27 ± 7.04 (-50 ± 9) %
Cn1cc(C(=O)[C@@H]2CCc3nc[nH]c3C2)c2ccccc21 [Ramosetron hydrochloride] |  |  |  |  | AC50 (human CYP1A2): 17.4 µM; AC50 (human CYP2C9 [1]): 10.7 ± 4.21 µM; AC50 (human CYP2D6 [3]): 17.4 µM
C=C(C)[C@H]1Cc2c(ccc3c2O[C@@H]2COc4cc(OC)c(OC)cc4[C@@H]2C3=O)O1 [Rotenone] |  |  | 1.04 µM |  | IC50 (human CYP2C9 [1]): 9.2 µM; IC50 (human CYP2D6 [3]): 37.7 µM
CCCc1nn(C)c2c(=O)[nH]c(-c3cc(S(=O)(=O)N4CCN(C)CC4)ccc3OCC)nc12 [Sildenafil citrate] |  | 20.6 µM | 30.4 µM | 31.7 µM | 
Nc1ccc(S(=O)(=O)Nc2nccs2)cc1 [Sulfathiazole] |  |  |  |  | AC50 (human CYP1A2; [11]): 33.2 µM; AC50 (human CYP2C9 [1]; [12]): 13.3 µM; AC50 (human CYP2D6 [3]; [13]): 56.1 µM
CN1CCN(CCCN2c3ccccc3Sc3ccc(S(=O)(=O)N(C)C)cc32)CC1 [Thioproperazine dimethanesulfonate] |  |  |  |  | IC50 (human CYP1A2): 24.1 ± 9.56 µM; IC50 (human CYP2C9 [1]): 17.4 µM; IC50 (human CYP2D6 [3]): 15.5 µM
CC1(C)CCC(=Cc2ccc(Cl)cc2)C1(O)Cn1cncn1 (stereo not shown) [Triticonazole] |  | 1.47 µM | 0.34 µM | 9.5 µM | CYP2C9 Efficacy (in parenthesis) (human CYP2C9 [4]): 1.47 ± 0.17 (-105 ± 3) %; CYP2C19 Efficacy (in parenthesis) (human CYP2C19 [5]): 0.34 ± 0.15 (-129 ± 16) %; CYP2D6 Efficacy (in parenthesis) (human CYP2D6 [6]): 9.5 ± 2.8 (-97 ± 3) %
C=CCOC(Cn1ccnc1)c1ccc(Cl)cc1Cl (stereo not shown) [imazalil] |  | 0.77 µM | 0.15 µM | 6.12 µM | 
Clc1ccc(C(c2ccccc2Cl)C(Cl)Cl)cc1 (stereo not shown) [o,p'-DDD] |  |  |  |  | AC50 (human CYP2C9 [1]; [12]): 16.8 µM; AC50 (human CYP2C19 [2]): 1.05 µM; AC50 (human CYP2D6 [3]; [13]): 31.2 µM
